Assay results published in US7795237B2, “Pharmaceutical composition and process” (priority 2005, dated 2010).

Experiments:
[1] = test system: hepatitis C virus (HCV); test: Viral load of patients infected with hepatitis C virus; type: in vivo
[2] = Behaviour on exposure to water (gelling); type: physicochemical; conditions: crystalline form exposed to water

Compound: CC(C)C(=O)OC[C@@]1(N=[N+]=[N-])O[C@@H](n2ccc(N)nc2=O)[C@H](OC(=O)C(C)C)[C@@H]1OC(=O)C(C)C.Cl [I, isobutyric acid (2R,3S,4R,5R)-5-(4-amino-2-oxo-2H-pyrimidin-1-yl)-2-azido-3,4-bis-iso-butyryloxy-tetrahydro-furan-2-ylmethyl ester; hydrochloride salt]
- viral load [1]: decrease the viral load
- gel formation when exposed to water [2]: readily forms a gel when exposed to water
